The values that follow come from patent US5721213A, “Peptides, active as inhibitors of platelet aggregation” (Nippon Steel Corporation, priority 1993, dated 1998).

Non-standard residues stand in square brackets, D forms with d. Residues, ends and D or L forms follow the SMILES beside them. Sar = CNCC(=O)O

One data set relates to mouse. In words: acute toxicity test. Format: in vivo. The settings on record: intravenously injected, 100 mg/Kg.
Data set [1] relates to platelets activated by ADP. The settings on record: 400 μM; cited from earlier work.
For another data set, the system named is platelet aggregation. To be noted: times as strong as RGDS; cited from earlier work.

Take `C[C@H](NC(=O)[C@H](CO)NC(=O)[C@@H]1CCCN1)C(=O)N(C)CC(=O)N[C@@H](CC(=O)O)C(=O)N[C@@H](Cc1c[nH]c2ccccc12)C(=O)O` [Example 1, Pro-Ser-Ala-Sar-Asp-Trp-OH] (H-PSA[Sar]DW-OH): the acute toxicity entry with mouse is recorded as “no toxicity was observed”.
For the compound “glycine-arginine-glycine-aspartic acid-serine-proline [GRGDSP]”, in data set [1], the “inhibition of aggregation of platelets activated by ADP” value is “completely inhibited”.
Take “arginine-glycine-aspartic acid-phenylalanine [RGDF]”: the “platelet aggregation-inhibiting activity relative to RGDS” value in the data set with platelet aggregation is reported as 4-5 times.
